The text below walks through data of patent publication US20050288279A1, “Phenothiazine derivatives and their method of use” (priority 2004, published 2005).

Entries after “also recorded” stand apart in the source; their conditions may differ. Where two headings read alike, the source gives them in different places.

The conditions of data set [1]: WHO; cited from earlier work.
A further data set concerns humans. Conditions: cited from earlier work.
Another data set has as its system guinea pigs. As to conditions: p.o. (Schwetz et al. 1973); cited from earlier work.
The subject of data set [2] is rats. Conditions: adult cycling rats, 10 μg/kg (Li et al. 1995a); cited from earlier work.
For data set [3] the following is noted: human data; cited from earlier work.
In data set [4] the test system is rats. As to conditions: calculated from the literature, cited from earlier work.
The next data set has as its system hamsters. Conditions: hamsters (Eisler 1986); cited from earlier work.
The subject of data set [5] is rats. As to conditions: cited from earlier work.
Another data set concerns CYP 1A1. The experiment in a line: In vitro ethoxyresorufin-O-deethylase (EROD) study in rat hepatoma cells. Type of data set: cell-based. The protocol: The induction of CYP 1A1 has been quantitatively measured in an cell-line study. The choice of EROD as an in vitro study was made based on its established procedure and speed. […] Its metabolic context is both, a strength and a weakness of the EROD assay. The greatest advantage of cell-based assays is the detection of the actual gene expression as compared to the study of interaction with DREs (Seidel et al. 2000).
The EROD-specific activity of TCPT declined over time, with its maximum at 24 h out of measurements after 24, 48 and 72 h. This indicates a comparatively rapid metabilization of TCPT by rat hepatoma cells.

A short description of data set [6]: Half-lives after intravenous dosage in rats. Conditions: rat, in vivo. The text has this:
(§1) Studies on a limited number of animal have been conducted to determine the approximate half-life of TCPT.

Another data set concerns guinea pig. The experiment in a line: Single intravenous administration of TCPT in guinea pigs. The data set is classed as in vivo. As to conditions: single i.v. 10 mg/kg in acetone (0.5 ml/kg). The protocol:
During ovulation studies (see Example 4 below), an adult female was lost after having been dosed with 10 mg/kg/day for 9 consecutive days; the animal died on day 13.
In this example, the toxicity of TCPT was compared between each species. […] On the other hand, a female rat receiving i.v. 10 mg/kg was sedated within 30 minutes.

Data set [7] concerns Dunkin-Hartley guinea pigs. The experiment in a line: Altering the regulation level for bodyweight in guinea pigs. The data set is classed as in vivo, guinea pig. The protocol: In the present invention, guinea pigs were dosed for 9 consecutive days with 2.5, 5, 10 and 20 mg/kg/day TCPT, respectively. The observations presented here were made during another study which was not designed for comparative body weight analysis. […] In contrast to studies on TCDD, weight gain resumed 1-2 days after cessation, probably due to TCPT's shorter half-life and therefore more rapid elimination.

Data set [8] in a line: Half-lives after intravenous dosage in guinea pigs. As to conditions: guinea pig, in vivo, 10 mg/kg, two guinea pigs, i.v. 10 mg/kg.
From the text: as §1

The subject of data set [9] is Dunkin-Hartley guinea pigs. The experiment in a line: Effects on ovulation in guinea pigs. Type of data set: in vivo, guinea pig. The text has this: In the present invention, guinea pigs were chosen for this study for two reasons. First, they represent the species that is the most sensitive to TCDD. […] Dosing with gelatin capsules can be performed in this species without anesthesia, which is not possible in rats. This is an important factor, since anesthetics generally influence ovulation.
The guinea pigs were followed for at least two regular consecutive cycles (about 16 days each) before commencing with dosing and also after the administration of TCPT was terminated. Their cycles were tracked by observation of vaginal opening and vaginal smears. The day of ovulation, day 1, was defined as a leucocytic smear following a cornified smear. The animals were dosed for 9 consecutive days starting on day 9 of a highly regular normal cycle. This way, the dosing period overlapped with the relevant time-span for ovulation and regulation of the cycle length (Terranova & Greenwald 1981). The animals received dose rates of 2.5, 5, 10 and 20 mg/kg TCPT per day. One animal was pair-fed to an animal dosed with 20 mg/kg/day TCPT.

Data set [10] can be described thus: Acute toxicity, daily p.o. doses of TCPT in guinea pigs. As to conditions: female, Dunkin-Hartley, guinea pig, in vivo, po.
Description: (§4) In this example, dose-range finding studies were performed with a small number of animals to accommodate the limited availability of TCPT.
(§5) Six adult male Dunkin-Hartley guinea pigs were given daily p.o. doses of TCPT. Due to its insolubility, TCPT was administered as a solid in size 9 gelatin capsules and dosing devices purchased from Torpack, Inc. (Fairfield, N.J.).
(§6) The experimental design of daily dosing accounted for the short half-life known from clinically used phenothiazines and the results of prior unpublished studies with 1,2,3,7,8,9-hexachlorophenothiazine.
(§7) This example first looked at daily p.o. administration to guinea pigs. Eleven guinea pigs received multiple doses of TCPT, with dosages ranging from 2.5 to 100 mg/kg/day.
Data set [11] has as its system Dunkin-Hartley guinea pigs. The data set is described as above.
Description: as §4, §5, §6, §7
The nature of data set [12]: Solubility and stability observations. Type of data set: physicochemical.
The nature of data set [13]: Acute i.v. toxicity of TCPT in rats. As to conditions: female, Sprague-Dawley, rat, in vivo, iv; rats, i.v.; read-out: dose for the acute lethal toxicity (referred to as i.v. LD50). Type of data set: in vivo, rat. The protocol: (§2) Animals dosed with 10 mg/kg became unconscious for 30 min, whereas in the 5 mg/kg dose group, the rats lost consciousness for 3 min only, likely representing the effects of acetone in this case.
(§3) Due to the unexpectedly rapid onset of death, no more detailed observations, e.g. on the heart rate, could be made.

In a further data set the test system is Sprague-Dawley rats. The experiment in a line: Acute i.v. toxicity of TCPT in rats. Type of data set: in vivo, rat. The protocol:
as §2, §3

Data set [14] relates to rats. The experiment in a line: Observed interaction with anesthetics (pentobarbital).
[15] abbreviates: 20 mg/kg/day, 9 consecutive days.
Setting [16] is: peroral solid TCPT 30 min prior to pentobarbital (55 mg/kg).

For `Clc1cc2c(cc1Cl)Oc1c(cc(Cl)c(Cl)c1Cl)O2` [PeCDD, 1,2,3,7,8-pentachlorodibenzo-p-dioxin], the TEF-value in data set [1] is 1.

For `Clc1cc2c(cc1Cl)Oc1cc(Cl)c(Cl)cc1O2` [TCDD, 2,3,7,8-Tetrachlorodibenzo-p-dioxin], the “concentration below which most individuals do not show signs” value in the data set on humans (humans (Williams & Wilkins 1992)) is 11,000 ppt. For the same compound, the “dose corresponding to 11,000 ppt” value in the data set with humans (humans (Young 1984)) is listed as “about 100 μg/kg”. The “concentration at which chloracne symptoms may occur” value in the data set with humans (susceptible individuals, based on serum lipid content) was 800 ppt. The LD50 with guinea pigs was 0.0021 mg/kg; in the data set with hamsters, 1157−5051 μg/kg; in the data set with rats [5] (Han Wistar rats (Pohjanvirta et al.)), > 3 mg/kg; in the data set with rats [5] (Long-Evans rats (Pohjanvirta et al.)), 0.01 mg/kg; in the data set with rats [5] (female rats (Schwetz et al. 1973)), 0.045 mg/kg; in the data set with rats [5] (male rats (Schwetz et al. 1973)), 0.022 mg/kg. Besides, in the data set with rats [2], the “effect on cycle and ovulation” value is reported as “prolonged diestrus stage”. Also, the absorption in data set [3] is > 86%. Also, the TEF-value in [1] is given as 1. For the same compound, the “body burden below which weight gain resumed” value with rats [4] (3 weeks after dosing) is “Below 5 μg/kg”. The “body burden at which feed intake started rising again” value in the data set with rats [4] (after non-lethal dose of 15 μg/kg, after 11 days) was 6.6 to 8 µg/kg. For the same compound, the “inter-strain difference in LD50” value with rats [5] (between Long-Evans and Han Wistar rats) is reported as ~300 fold. Besides, in the data set on rats [5] (rats, i.v. (Schwetz et al. 1973)), the “i.v. LD50” value was 0.025 mg/kg.

Turning to `Clc1cc2c(cc1Cl)Sc1cc(Cl)c(Cl)cc1N2` [TCPT, 2,3,7,8-tetrachlorophenothiazine], the “potency compared with TCDD (acute toxicity in animals and in vitro EROD-specific activity)” value in the data set on CYP 1A1 was “three orders of magnitude less potent”. Moreover, the “time of maximum EROD-specific activity” value with CYP 1A1 (measurements after 24, 48 and 72 h, declined over time) was 24 h. Also, the “efficacy, of the efficacy of TCDD, in vitro EROD-bioassay” value in the data set with CYP 1A1 (rat hepatoma cells) was 77%. The half-life in data set [6] (5 mg/kg, two rats, i.v. 5 mg/kg, read-out: half-life, distribution phase (converted)) was 0.82 h; in data set [6] (5 mg/kg, two rats, i.v. 5 mg/kg, read-out: half-life, elimination phase (converted)), 5.42 h; in data set [6] (10 mg/kg, one rat, i.v. 10 mg/kg, read-out: half-life, distribution phase (converted)), 0.47 h; in [6] (10 mg/kg, one rat, i.v. 10 mg/kg, read-out: half-life, elimination phase (converted)), 2.25 h; in data set [8] (read-out: half-life, distribution phase (converted)), 0.42 h; in [8] (read-out: half-life, elimination phase (converted)), 2.71 h. Moreover, the observable effects result in the data set with guinea pig is on record as “no observable effect”. The set-point of bodyweight result in data set [7] (all survivors) is reported as “reduced set-point of bodyweight”. In addition, in data set [7] (guinea pigs, 2.5, 5, 10 and 20 mg/kg/day for 9 consecutive days), the “bodyweight during the dosing period” value is on record as “decrease in bodyweight”. Besides, the “time until weight gain resumed after cessation” value in data set [7] (guinea pigs, after 9 days of dosing) fell in the range of 1 to 2 days. Further, in [7] (treated animal (20 mg/kg/day, 9 days), FIG. 2), the “reduction of set-point for bodyweight” value was found to be 66 grams. Moreover, the effect on cycle/ovulation entry is recorded as “shortened period of vaginal opening” in data set [9] (10 mg/kg/day, 9 consecutive days) and “no effect” in data set [9] (two lowest dose groups (2.5, 5 mg/kg per day), 9 consecutive days from day 9 of cycle). In [9] (setting [15]), the effect on ovulation result is recorded as “inhibited ovulation”. The vaginal opening result in [9] (setting [15]) is “irregular vaginal opening”. In addition, the “direct or endocrine effect on the ovaries” value in data set [9] (guinea pigs, conclusion of the experiment) was “no direct or endocrine effect on the ovaries”. The LD50 in [10] was 25 to 50 mg/kg; in data set [13], 10 to 30 mg/kg. In data set [11] (adult female guinea pig, 10 mg/kg/day p.o. for 9 consecutive days), this compound gave a day of death of 13 days. Moreover, the Result result in data set [11] (adult male guinea pig, animal 1, p.o. 25 mg/kg/d for 18 days) is listed as “survived”; in data set [11] (adult male guinea pig, animal 2, p.o. l00 mg/kg/d for 8 days), “died”; in data set [11] (adult male guinea pig, animal 3, p.o. 50, 10, 25, 50 mg/kg/d (dose-range finding) for 17 days), “died”; in [11] (adult male guinea pigs, animals 4-6, p.o. 27.5, 44, 50, 57, 67, 75 mg/kg/d for 13 days), “survived”. The body weight result in data set [11] (eleven guinea pigs, multiple p.o. doses 2.5 to 100 mg/kg/day) is given as “body weight loss”. Besides, in data set [11] (guinea pigs), the “p.o. LD50 of TCPT relative to reported p.o. LD50 of TCDD” value is on record as “roughly 10,000 times”. For the same compound, in data set [11] (guinea pigs that died), the autopsy finding entry is recorded as “loss of all adipose tissue”. Moreover, the “days of dosing until death” value in [11] (guinea pigs, p.o. 25-50 mg/kg/day) was in the range of 8 to 11 days. In addition, the “dose for the acute lethal toxicity” value in [11] (guinea pigs, p.o., daily dosing) was 25 to 50 mg/kg/day. Also, in data set [11] (oral administration), the “difference in acute toxicity to TCDD” value is reported as 10^−4 fold. Besides, in data set [11] (p.o. dosing), the “peroral potency compared with TCDD (wasting syndrome)” value is on record as “four orders of magnitude lower”. The tolerance result in data set [11] (survivors of daily p.o. dosing) is “development of tolerance”. In addition, the values for the stability in acetone entry in [12] and in data set [12] (listed as KWF3) were “decomposes in acetone” and “degraded when kept in acetone for longer periods of time”, respectively. For the same compound, the solubility result in data set [12] (any solvent) is listed as “insolubility; also recorded: low solubility”. In addition, the sedation in the data set with Sprague-Dawley rats (female rat, i.v. 10 mg/kg) was ≤ 30 min. Besides, in the data set on Sprague-Dawley rats (female rats, i.v. 5 mg/kg in acetone (1 ml/kg), likely effect of acetone), the “duration of lost consciousness” value was found to be 3 min. Also, the duration of unconsciousness with Sprague-Dawley rats (female rats, i.v. 10 mg/kg in acetone (1 ml/kg)) is recorded as 30 min. The lethality result in the data set on Sprague-Dawley rats (female rats, i.v. 30 mg/kg in acetone (1 ml/kg), 30 mg/kg) is reported as “died within five seconds; also recorded: dropped dead within five seconds; also recorded: lethal dose”. The “i.v. LD50 of TCPT relative to reported i.v. LD50 of TCDD” value in the data set on Sprague-Dawley rats (rats) was “roughly 1,000 times”. Besides, the “mortality in anesthetized animals” value in the data set with rats [14] (i.v. 3 mg/kg, pentobarbital anesthesia) is listed as “one animal dying out of three”. The “effect in anesthetized animals” value with rats [14] (i.v. 5 mg/kg in acetone (1 ml/kg), pentobarbital 55 mg/kg) is reported as “immediate respiratory arrest”. In addition, the fatalities result with rats [14] (setting [16]) is reported as “no fatalities”. Further, in the data set with rats [14] (setting [16]), the “shortening of the onset of anesthesia” value is given as “about 50%”. For the same compound, the breathing result in the data set with rats [14] (rats, p.o. administration of various doses during pentobarbital-induced anesthesia) was “breathed very shallow and in long intervals”.

What is called LD50 is the dose expected to kill half of the subjects tested. As usually defined, the half-life is the time in which the quantity being followed falls by half.
